Laboratory results from US20050148614A1 (priority 1997, published 2005).

Experiments:
[1] = system: amnesia induced by the injection of vincristine; assay: Evaluation test of the social memory in the rat after lesions caused by injection of vincristine; format: in vivo; conditions: vincristine-lesioned rats
Experimental: In this model, the effects are evaluated of the products tested on amnesia induced by the injection of vincristine which induces biochemical alterations similar to the changes present in Alzheimer's disease.
The procedures used in this model, lesions caused by vincristine as well as the evaluation of the social memory are described in EP 655247.
Evaluation Test of the Social Memory in the Rat.
The dose of 1 mg/kg i.p. of tacrine is then administered to the two groups of rats.

[2] = system: amnesia induced by the injection of vincristine; conditions: vincristine-lesioned rats; as described in EP 655247; cited from earlier work

| Compound | recovery of memory ([1]; solvent then tacrine 1 mg/kg i.p. (control group)) | functional recovery in terms of memory ([1]; SR 57746A alone at 5 mg/kg p.o.) | efficacious dose (functional recovery of memory) [2] |
| --- | --- | --- | --- |
| Nc1c2c(nc3ccccc13)CCCC2 [tacrine, reference compound] | no recovery of memory |  |  |
| Cl.FC(F)(F)c1cccc(C2=CCN(CCc3ccc4ccccc4c3)CC2)c1 [SR 57746A, 1-(2-naphth-2-ylethyl)-4-(3-trifluoromethylphenyl)-1,2,3,6-tetrahydropyridine hydrochloride] |  | insufficient to permit functional recovery in terms of memory | 10 mg/kg |
